These results are taken from publication PMC7356358 (Biomolecules, 2020).

Where two headings read alike, the source gives them in different places.

Series [1] relates to PfHsp70-1. The experiment in a line: Model peptide substrate binding by MP-SPR, PfHsp70-1. The following applies: for affinity of PfHsp70-1 relative to the non-enriched peptide (GFRVVLMYRF, ALLLMYRR): presence of ADP. Details: species or system Plasmodium falciparum. From the text: (§1) The Hsp70 ligands were immobilized as previously described.
The test system of series [2] is KPf. As to conditions: SD, n = 3. From the text: (§2) Standard deviations shown represent three
(§3) independent assays made using separate protein purification batches. Statistical significance of data was
(§4) Table S2. Comparative ATP binding affinities for the Hsp70 proteins
(§5) The standard deviations shown in parenthesis were […]

In series [3] the target is T1, DnaK (Escherichia coli, UniProt P0A6Y8). The experiment in a line: Steady-state multi-parametric surface plasmon resonance at 25 °C with Hsp70 immobilised by amine coupling and ATP (0-20 uM) injected as analyte. Format: binding. The following applies: SD, n = 3; read-out: KD /µM (± standard deviation). Further details: recombinant full-length, N-terminal His6 tag (pQE30), expressed in E. coli XL1 Blue. As for the experimental part: Association was allowed for 2 min and dissociation was monitored for 8 min.
as §2, §3, §4, §5
Target sequence in this assay (P0A6Y8 2-638): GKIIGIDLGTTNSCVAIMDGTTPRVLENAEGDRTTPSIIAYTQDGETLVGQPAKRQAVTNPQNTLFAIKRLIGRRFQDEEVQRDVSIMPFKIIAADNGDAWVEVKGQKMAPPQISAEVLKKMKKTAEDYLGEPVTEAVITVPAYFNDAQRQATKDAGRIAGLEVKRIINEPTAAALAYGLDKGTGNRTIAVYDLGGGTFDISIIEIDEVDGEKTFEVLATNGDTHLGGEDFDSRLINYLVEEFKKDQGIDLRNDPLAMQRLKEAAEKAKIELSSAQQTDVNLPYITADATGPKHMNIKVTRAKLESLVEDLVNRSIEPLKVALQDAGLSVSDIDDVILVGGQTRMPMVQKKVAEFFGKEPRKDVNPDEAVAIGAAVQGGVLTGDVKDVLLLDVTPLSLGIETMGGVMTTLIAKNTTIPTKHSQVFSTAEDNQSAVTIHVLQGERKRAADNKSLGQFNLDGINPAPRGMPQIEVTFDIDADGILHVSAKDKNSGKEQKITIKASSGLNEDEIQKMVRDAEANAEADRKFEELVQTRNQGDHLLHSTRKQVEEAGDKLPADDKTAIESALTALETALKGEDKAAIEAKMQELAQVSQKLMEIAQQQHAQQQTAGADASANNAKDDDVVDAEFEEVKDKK
In general terms: In SPR one partner is held on a chip, and binding of the other changes the refractive index at the surface.

For series [4], the system named is KPf. As to conditions: read-out: Km (µM), + PfHsp40; SD, n = 3.
Description: (§6) Hsp70 proteins at final concentration of 0.4 μM were each incubated for 5 min in buffer HKMD (10 mM HEPES-KOH pH 7.5, 100 mM KCl, 2 mM MgCl2 and 0.5 mM DTT). The reaction was initiated by the addition of ATP at various concentrations (0–5 mM) and samples were analyzed every 30 min for 4 h.
Standard deviations shown represent three independent assays made using separate protein purification batches.
validated by one way ANOVA test (p< 0.05 *) and (p<0.01**).
Series [5] addresses KPf. The experiment in a line: ATP binding affinity by MP-SPR, KPf. Details: species or system E. coli / P. falciparum. As to conditions: read-out: ATP KD (± standard deviation), 25 °C, immobilized KPf, ATP analyte 0-20 μM, steady state equilibrium, three independent assays. As for the experimental part: This assay was conducted at room temperature (25 °C) using a BioNavis Multi-parametric surface plasmon resonance (MP-SPR; BioNavis; Tampere, Finland) spectroscopy system. […] Steady state equilibrium constant data were processed and analyzed using TraceDrawer software version 1.8 (Ridgeview Instruments; Uppsala, Sweden).
Proteins Vmax (n/mol/min/mg) Km (µM)
as §2, §3
KD /µM (± standard deviation)
as §5

The target of series [6] is T1, DnaK. The experiment in a line: Model peptide substrate binding by MP-SPR, DnaK. Further details: His6 (polyhistidine) (N); made in house; host or cells: E. coli XL1 Blue. The following applies: for effect of asparagine enrichment of the peptide on DnaK's affinity: presence of ADP, N-enriched form versus this peptide; for affinity of DnaK for peptide: peptide 0-2000 nM over immobilized DnaK, presence of ADP (5 mM).
From the text: as §1
Target sequence in this assay (P0A6Y8 whole entry): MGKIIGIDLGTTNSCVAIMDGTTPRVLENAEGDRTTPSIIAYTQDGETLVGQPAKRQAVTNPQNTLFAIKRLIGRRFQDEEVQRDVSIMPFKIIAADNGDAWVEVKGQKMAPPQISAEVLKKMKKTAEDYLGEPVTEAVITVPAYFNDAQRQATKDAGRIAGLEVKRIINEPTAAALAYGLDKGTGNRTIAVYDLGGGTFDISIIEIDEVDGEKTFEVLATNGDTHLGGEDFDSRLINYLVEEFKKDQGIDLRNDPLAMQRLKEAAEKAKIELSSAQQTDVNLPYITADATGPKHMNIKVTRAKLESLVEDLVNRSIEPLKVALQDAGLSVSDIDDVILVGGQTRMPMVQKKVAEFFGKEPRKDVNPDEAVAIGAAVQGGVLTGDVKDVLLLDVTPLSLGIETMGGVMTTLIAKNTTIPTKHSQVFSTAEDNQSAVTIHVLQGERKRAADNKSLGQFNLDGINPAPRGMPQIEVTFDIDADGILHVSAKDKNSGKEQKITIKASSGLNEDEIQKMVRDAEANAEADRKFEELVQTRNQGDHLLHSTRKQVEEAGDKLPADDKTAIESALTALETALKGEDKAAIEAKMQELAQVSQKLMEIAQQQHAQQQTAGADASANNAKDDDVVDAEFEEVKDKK

For series [7], the system named is KPf. The following applies: MP-SPR; for effect of N enrichment of the peptide on affinity of KPf: presence of 5 mM ADP, N-enriched form versus this peptide.
Target sequence in this assay (P11144 405-631 limits assumed): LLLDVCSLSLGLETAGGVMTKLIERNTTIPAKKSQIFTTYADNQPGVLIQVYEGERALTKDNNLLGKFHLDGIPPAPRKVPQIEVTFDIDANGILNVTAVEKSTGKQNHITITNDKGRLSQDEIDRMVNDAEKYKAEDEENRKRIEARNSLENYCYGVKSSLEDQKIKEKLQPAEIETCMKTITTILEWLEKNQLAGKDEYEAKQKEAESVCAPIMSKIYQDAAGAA
Description: The respective affinity of each Hsp70 for model peptide substrate was investigated by MP-SPR. The Hsp70 ligands were immobilized as previously described [36]. […] The analytes were injected at varying concentrations (0, 125 nM, 250 nM, 500 nM, 1000 nM and 2000 nM) over the immobilized ligands (Hsp70s). The analytes were injected at a flow rate of 100 µL/min and association and dissociation were allowed to occur for 10 min. The assay was conducted both in the absence and presence of 5 mM ADP/ATP. Analysis of association and dissociation data was conducted as previously described using TraceDrawer software version 1.8 (Ridgeview Instruments).
The target of series [8] is T1, DnaK. As to conditions: MP-SPR.
Target sequence in this assay (P0A6Y8 whole entry): as the sequence (P0A6Y8 whole entry) above
Description: (§7) As ligands, the recombinant Hsp70 proteins were immobilized on the CMD3D 500L chip. The analyte (respective Hsp70 protein) was prepared at various concentrations of 0, 125, 250, 500, 1000 and 2000 nM, respectively and injected at 50 μL/sec onto each channel with immobilized ligands. A reference channel without immobilized protein served as the control for non-specific binding and changes in refractive index. The analysis was conducted either in the absence or presence of 5 mM ATP/ADP. Association was allowed for 2 min, while dissociation was monitored for 8 min. Data analysis was conducted after double referencing by subtraction of both the baseline RU (buffer with ATP/ADP plus BSA as control protein) and RU from the reference channel. Kinetics steady-state equilibrium constant data were processed after concatenating the responses of all five analyte concentrations by global fitting using TraceDrawer software version 1.8 (Ridgeview Instruments).
A short description of series [9]: ATPase activity (released inorganic phosphate). The series is classed as biochemical. As to conditions: basal ATPase, 0.4 μM Hsp70, ATP 0-5 mM, buffer HKMD pH 7.5, SD of three independent assays.
Description: as §6
A short description of series [10]: Heat stability of secondary structure by far-UV CD. The series is classed as physicochemical. The following applies: far-UV CD at 222 nm. As for the experimental part: Spectra was averaged for 15 scans after baseline correction (buffer without recombinant protein). The spectra were deconvoluted to α-helix, β-sheet, β-turn and unordered regions, using the Dichroweb server, (http://dichroweb.cryst.bbk.ac.uk; [37]). The effect of heat stress on the secondary structure of the Hsp70s was investigated by monitoring the spectral changes of each protein at various temperatures (19–95 °C). The folded states of each Hsp70 protein at any given temperature were determined using spectral readings obtained at 222 nm as previously described. In a separate experiment, the analysis of PfAdoMetDC protein co-expressed with the various chaperone sets was conducted by monitoring the CD spectrum at 190–240 nm at 22 °C. The assay was repeated in the presence of PfAdoMetDC substrate, S-adenosylmethionine hydrochloride (SAM), as previously described with minor modifications. Briefly, PfAdoMetDC protein was preincubated in PBS supplemented with 100 μM SAM for 30 min prior to analysis at 25 °C. The resultant spectra were monitored and averaged following baseline correction (100 μM SAM using buffer void of the protein).

Another series has as its system PfAdoMetDC. The experiment in a line: Co-expression of PfAdoMetDC with supplementary chaperones in E. coli, fold by CD/fluorescence. Format: cell-based, Plasmodium falciparum. As to conditions: co-expression with DnaJ in E. coli BL21 Star (DE3); purified PfAdoMetDC analysed by CD, ANS and intrinsic fluorescence.
The test system of series [11] is PfHsp70-1. The experiment in a line: Self-association of PfHsp70-1 by MP-SPR. Format: binding, Plasmodium falciparum.
Description: as §7
The mark [12] stands for this setting: 0.2 μM protein in PBS pH 7.5, 19–95 °C.

Sequence of PfHsp70-1 (P11144 1-630 limits assumed): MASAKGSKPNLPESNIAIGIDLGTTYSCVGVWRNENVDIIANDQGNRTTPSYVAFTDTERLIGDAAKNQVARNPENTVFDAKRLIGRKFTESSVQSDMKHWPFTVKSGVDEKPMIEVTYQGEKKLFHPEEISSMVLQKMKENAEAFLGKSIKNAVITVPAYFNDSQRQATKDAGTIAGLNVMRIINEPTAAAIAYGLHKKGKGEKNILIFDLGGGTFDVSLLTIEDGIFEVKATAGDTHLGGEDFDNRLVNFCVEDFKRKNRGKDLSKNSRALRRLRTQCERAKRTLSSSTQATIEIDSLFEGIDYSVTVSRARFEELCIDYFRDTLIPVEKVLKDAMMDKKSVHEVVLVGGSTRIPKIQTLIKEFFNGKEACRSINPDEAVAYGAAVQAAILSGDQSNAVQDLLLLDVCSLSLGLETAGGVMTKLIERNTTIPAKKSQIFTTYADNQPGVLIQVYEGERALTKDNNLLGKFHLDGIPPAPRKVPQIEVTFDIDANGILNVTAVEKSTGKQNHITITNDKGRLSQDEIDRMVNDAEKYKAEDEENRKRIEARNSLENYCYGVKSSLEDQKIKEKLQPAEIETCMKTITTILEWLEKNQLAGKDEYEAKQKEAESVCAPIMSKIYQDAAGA
Description for PfAdoMetDC: Briefly, the transformed E. coli BL21 Star (DE3) cells were cultured in LB broth supplemented with 100 μg/mL ampicillin (Sigma Aldrich) to select for pASKIBA3 and 50 μg/mL spectinomycin (Sigma Aldrich), to select for pBB535 and pBB542, respectively. As control, PfAdoMetDC expressed alone (without supplementary chaperones), was expressed in E. coli BL21 StarTM (DE3) cells as previously described [33]. The expression of chaperones was initiated by addition of 1 mM IPTG and at OD600 = 0.2 while the expression of PfAdoMetDC was initiated by addition of 2 ng/mL anhydroxytetracycline (AHT) (IBA GmbH, Göttingen, Germany) at OD600 = 0.7. Cells were incubated for 24 h (37 °C, 250 rpm) from the time of induction with IPTG. The cells were harvested by centrifugation (5000 g, 20 min, 4 °C) and the pellet was resuspended in lysis buffer (100 mM Tris pH 7.5; 300 mM NaCl; 10 mM Imidazole, containing 1 mM aminoethyl benzenesulfonyl fluoride hydrochloride (AEBSF) and 1 mg/mL of lysozyme). […] Purified PfAdoMetDC protein was quantified using the Bradford assay. […] Following Strep-Tactin Sepharose affinity column purification, PfAdoMetDC was analyzed using an Äkta explorer system (Amersham Pharmacia Biotech; Buckinghamshire, UK) fast protein liquid chromatography (FPLC), to determine migration profiles of the protein preparations that were co-expressed with the various chaperones sets. The migration pattern of PfAdoMetDC as determined by Size exclusion chromatography (SEC) was used to infer the compact/relaxed state of its fold. Retention times of the respective protein preparation were determined by SEC at 22 °C in running buffer (50 mM Tris-HCl, pH 7.5, 1 mM DTT, 500 mM NaCl and 0.02% w/v NaN3) using Bio-Select SEC 250-5 column (BioRad) with a fractionation range of 1000–250,000 Da. […] The elution profiles of the protein preparations were determined as peaks obtained at 280 nm using a Spectra Series UV100 spectrophotometer (Thermo Fischer Scientific). […]

In the case of ANNNMYRR, in the series on PfHsp70-1 [1], the “affinity of PfHsp70-1 relative to the non-enriched peptide (GFRVVLMYRF, ALLLMYRR)” value was “higher affinity”.
By Km is commonly meant the concentration of substrate that gives half-maximal velocity. On to `Nc1ncnc2c1ncn2[C@@H]1O[C@H](COP(=O)(O)OP(=O)(O)OP(=O)(O)O)[C@@H](O)[C@H]1O` [ATP, adenosine 5'-triphosphate], for which the Km was 29.6 µM in the series on KPf [2] and 25.7 µM with KPf [4]. The Kd on DnaK [3] came out at 83.8 µM.
As to `Nc1ncnc2c1ncn2[C@@H]1O[C@H](COP(=O)(O)OP(=O)(O)OP(=O)(O)O)[C@@H](O)[C@H]1O` [ATP], at KPf [5], the Kd amounted to 0.38 µM.
GFRVVLMYRF: on DnaK [6], the “effect of asparagine enrichment of the peptide on DnaK's affinity” value is recorded as “did not enhance”. In the series with KPf [7], the “effect of N enrichment of the peptide on affinity of KPf” value is “not enhanced”.
As to “DnaK: recombinant (His)6-tagged Escherichia coli Hsp70 (DnaK)”, the Ka with DnaK [8] (analyte DnaK 0-2000 nM over immobilized DnaK, + 5 mM ATP, global fit) is 1.38 (±0.08) × 10^2 Ms^−1; in the series with DnaK [8] (analyte DnaK over immobilized DnaK, + 5 mM ADP) it was 1.22 (±0.13) × 10^2 Ms^−1; with DnaK [8] (analyte DnaK over immobilized DnaK, no nucleotide), 1.27 (±0.07) × 10^3 Ms^−1. For the same molecule, the Vmax in series [9] was 14.33 (± 1.4) n/mol/min/mg. Besides, the “temperature above which the protein rapidly unfolded” value in [10] (setting [12]) was “above 45 °C”. The “temperature of complete unfolding” value in [10] (setting [12]) is “approximately 68 °C”. Further, in the series on PfAdoMetDC, the “effect of co-produced chaperone on PfAdoMetDC folding” value (“effect … on PfAdoMetDC folding” below) is “did not support PfAdoMetDC folding”.
In the case of “PfHsp70-1: recombinant Plasmodium falciparum Hsp70-1, cytosol-localized molecular chaperone (PF3D7_0818900)”, the “association rate constant (kon)” value in the series with PfHsp70-1 [11] (analyte PfHsp70-1 0-2000 nM over immobilized PfHsp70-1, + 5 mM ATP) is reported as 2.14 (±0.04) × 10^4 Ms^−1; in the series with PfHsp70-1 [11] (analyte PfHsp70-1 over immobilized PfHsp70-1, + 5 mM ADP), 1.00 (±0.17) × 10^2 Ms^−1; in the series with PfHsp70-1 [11] (analyte PfHsp70-1 over immobilized PfHsp70-1, no nucleotide), 8.51 (±1.20) × 10^3 Ms^−1. Moreover, in [9], the Vmax is 22.45 (± 1.8) n/mol/min/mg. The “temperature of complete unfolding” value in series [10] (setting [12]) is “around 90 °C”. Further, the “temperature up to which at least 50% fold is maintained” value in series [10] (0.2 μM protein in PBS pH 7.5, 19–95 °C, relative to 19 °C) is 60 °C. Moreover, in [10] (two-step unfolding pattern), the “temperature range of second unfolding phase” value is 75–90 °C. Besides, the “effect … on PfAdoMetDC folding” value in the series with PfAdoMetDC is recorded as “fully folded status”.
For the molecule ALLLMYRR, on DnaK [6], the “effect of asparagine enrichment of the peptide on DnaK's affinity” value is on record as “did not enhance”. Moreover, the “effect of N enrichment of the peptide on affinity of KPf” value with KPf [7] is listed as “not enhanced”.
With GFRNNNMYRF, in the series with PfHsp70-1 [1], the “affinity of PfHsp70-1 relative to the non-enriched peptide (GFRVVLMYRF, ALLLMYRR)” value was “higher affinity”.
For the molecule “GroEL: E. coli chaperonin co-expressed as supplementary chaperone”, the “effect … on PfAdoMetDC folding” value in the series with PfAdoMetDC is recorded as “restoration of the ß-conformation”.
For “NRLLTG [canonical Hsp70 model peptide substrate]”, the “affinity of DnaK for peptide” value at DnaK [6] is “nanomolar range”.
With NRNNTG, on PfHsp70-1 [1] (peptide over immobilized PfHsp70-1, presence of ADP, higher than for NRLLTG), the “affinity of PfHsp70-1 for peptide” value is on record as “nanomolar range”. The “affinity of DnaK for peptide” value on DnaK [6] is “micromolar range”. For the same molecule, the “affinity of KPf for peptide” value at KPf [7] (peptide over immobilized KPf, presence of ADP, higher than for NRLLTG) is on record as “nanomolar range”.
